This note sets out measurements from patent US20240270762A1, “PENICILLIN-BINDING PROTEIN INHIBITORS” (priority 2021, published 2024).

The subject of one test is A. baumannii CDC-0045. The experiment in a line: microbe, parasite or virus in culture. In kind it is cell-based. The settings on record: Acinetobacter baumannii, CDC0045, read-out: Minimum inhibitory concentration (MIC), A. baumannii CDC-0045.
In the next test the test system is P. aeruginosa CDC-0054. Briefly: microbe, parasite or virus in culture. In kind it is cell-based. The settings on record: Pseudomonas aeruginosa, CDC0054, read-out: Minimum inhibitory concentration, P. aeruginosa CDC-0054.
Test [1] has as its system B. humptydooensis ATCC BAA-2767. The experiment in a line: microbe, parasite or virus in culture. In kind it is cell-based. Conditions: Burkholderia humptydooensis, ATCCBAA2767, read-out: Minimum inhibitory concentration (MIC), B. humptydooensis ATCC BAA-2767.
Another test deals with A. baumannii CDC-0033. Briefly: microbe, parasite or virus in culture. It counts as cell-based. Conditions: Acinetobacter baumannii, CDC0033, read-out: Minimum inhibitory concentration (MIC), A. baumannii CDC-0033.
The next test relates to A. baumannii 1258916. Briefly: microbe, parasite or virus in culture. It counts as cell-based, Acinetobacter baumannii. The settings on record: Acinetobacter baumannii, 1258916, read-out: Minimum inhibitory concentration (MIC), A. baumannii 1258916.
A further test has as its system A. baumannii ATCC 17978. The experiment in a line: microbe, parasite or virus in culture. It counts as cell-based. Conditions: Acinetobacter baumannii, ATCC17978, read-out: Minimum inhibitory concentration (MIC), A. baumannii ATCC 17978.
Test [2] deals with P. aeruginosa (ΔmexAB-oprM). The experiment in a line: Broth microdilution MIC in iron-depleted CAMHB (IDM). Conditions: Pseudomonas aeruginosa, read-out: Minimum inhibitory concentration, P. aeruginosa ΔmexAB-oprM. It counts as cell-based.
The test system of the next test is P. aeruginosa ATCC 35151. The experiment in a line: microbe, parasite or virus in culture. It counts as cell-based. The settings on record: Pseudomonas aeruginosa, ATCC35151, read-out: Minimum inhibitory concentration, P. aeruginosa ATCC 35151.
The test system of test [3] is B. thailandensis ATCC 700388. Briefly: microbe, parasite or virus in culture. It counts as cell-based. The settings on record: Burkholderia thailandensis, ATCC700388, read-out: Minimum inhibitory concentration (MIC), B. thailandensis ATCC 700388.

Values after ≈ are worked out from the molar mass of the structure shown. Read-outs that look alike come from different tables or passages of the source.

Turning to `O=C(O)c1c(F)ccc2c1OB(O)[C@@H](NC(=O)[C@H](NC(=O)N1CCN(S(=O)(=O)c3ccc(O)c(O)c3Cl)C1=O)c1ccc(P(=O)(O)O)cc1)C2` [Example 506, (R)-3-((R)-2-(3-((2-chloro-3,4-dihydroxyphenyl)sulfonyl)-2-oxoimidazolidine-1-carboxamido)-2-(4-phosphonophenyl)acetamido)-7-fluoro-2-hydroxy-3,4-dihydro-2H-benzo[e][1,2]oxaborinine-8-carboxylic acid], the MIC (with A. baumannii CDC-0045; with P. aeruginosa CDC-0054; in test [1]; in the test with A. baumannii CDC-0033; in the test with A. baumannii 1258916; in the test on A. baumannii ATCC 17978) was < 1 µg/mL throughout. Further, the MIC in test [2] (iron-depleted CAMHB (IDM), […]) was < 1 µg/mL; with P. aeruginosa ATCC 35151 it was < 1 µg/mL; in test [3] it was < 1 µg/mL.
`O=C(O)c1cccc2c1OB(O)[C@@H](NC(=O)[C@H](NC(=O)N1CCN(Cc3cc(F)c(O)c(O)c3Cl)C(=O)C1=O)c1ccc(P(=O)(O)O)cc1)C2` [Example 504, (R)-3-((R)-2-(4-(2-chloro-5-fluoro-3,4-dihydroxybenzyl)-2,3-dioxopiperazine-1-carboxamido)-2-(4-phosphonophenyl)acetamido)-2-hydroxy-3,4-dihydro-2H-benzo[e][1,2]oxaborinine-8-carboxylic acid]: the MIC (in the test on A. baumannii CDC-0045; in the test with P. aeruginosa CDC-0054; in [1]; in the test with A. baumannii CDC-0033; in the test on A. baumannii 1258916; in the test with A. baumannii ATCC 17978) was < 1 µg/mL each time. The MIC (in test [2]; in the test with P. aeruginosa ATCC 35151; in test [3]) was < 1 µg/mL throughout.
Turning to `O=C(O)c1c(F)ccc2c1OB(O)[C@@H](NC(=O)[C@H](NC(=O)N1CCN(Cc3ccc(O)c(O)c3Cl)C(=O)C1=O)c1cc(F)c(P(=O)(O)O)c(F)c1)C2` [Example 502, (R)-3-((R)-2-(4-(2-chloro-3,4-dihydroxybenzyl)-2,3-dioxopiperazine-1-carboxamido)-2-(3,5-difluoro-4-phosphonophenyl)acetamido)-7-fluoro-2-hydroxy-3,4-dihydro-2H-benzo[e][1,2]oxaborinine-8-carboxylic acid], the MIC (in the test on A. baumannii CDC-0045; in the test on P. aeruginosa CDC-0054; in test [1]; with A. baumannii CDC-0033; with A. baumannii 1258916; in the test with A. baumannii ATCC 17978) was < 1 µg/mL in each case. The MIC was < 1 µg/mL in test [2] (iron-depleted CAMHB (IDM), […]); < 1 µg/mL in the test with P. aeruginosa ATCC 35151; < 1 µg/mL in [3].
With `O=C(O)c1c(F)ccc2c1OB(O)[C@@H](NC(=O)[C@H](NC(=O)N1CCN(C3CCN(C(=O)c4ccc(O)c(O)c4Cl)CC3)C1=O)c1ccc(P(=O)(O)O)cc1)C2` [Example 494, (R)-3-((R)-2-(3-(1-(2-chloro-3,4-dihydroxybenzoyl)piperidin-4-yl)-2-oxoimidazolidine-1-carboxamido)-2-(4-phosphonophenyl)acetamido)-7-fluoro-2-hydroxy-3,4-dihydro-2H-benzo[e][1,2]oxaborinine-8-carboxylic acid], the MIC (in the test with A. baumannii CDC-0045; with P. aeruginosa CDC-0054; in test [1]; in the test on A. baumannii CDC-0033; in the test with A. baumannii 1258916; in the test on A. baumannii ATCC 17978) was < 1 µg/mL each time. Further, the MIC in test [2] (iron-depleted CAMHB (IDM), […]) was < 1 µg/mL; in the test with P. aeruginosa ATCC 35151, < 1 µg/mL; in test [3], < 1 µg/mL.
In the case of `O=C(O)c1c(F)ccc2c1OB(O)[C@@H](NC(=O)[C@H](NC(=O)N1CCN(C3CCN(C(=O)Nc4cc(F)c(O)c(O)c4Cl)CC3)C1=O)c1ccc(P(=O)(O)O)cc1)C2` (single isomer, unassigned) [Example 500], the MIC (in the test with A. baumannii CDC-0045; in the test on P. aeruginosa CDC-0054; in [1]; with A. baumannii CDC-0033; with A. baumannii 1258916; in the test with A. baumannii ATCC 17978) was < 1 µg/mL each time. The MIC was < 1 µg/mL in test [2] (iron-depleted CAMHB (IDM), […]); < 1 µg/mL with P. aeruginosa ATCC 35151; < 1 µg/mL in test [3].
On to `O=C(NCCN1CCN(C(=O)N[C@@H](C(=O)N[C@H]2Cc3ccc(F)c(C(=O)O)c3OB2O)c2ccc(P(=O)(O)O)cc2)C(=O)C1=O)c1ccc(O)c(O)c1Cl` [Example 503, (R)-3-((R)-2-(4-(2-(2-chloro-3,4-dihydroxybenzamido)ethyl)-2,3-dioxopiperazine-1-carboxamido)-2-(4-phosphonophenyl)acetamido)-7-fluoro-2-hydroxy-3,4-dihydro-2H-benzo[e][1,2]oxaborinine-8-carboxylic acid], for which the MIC was 2 to 4 µg/mL (≈ 2.53 to 5.05 µM) with A. baumannii CDC-0045; < 1 µg/mL with P. aeruginosa CDC-0054; < 1 µg/mL in [1]; 2 to 4 µg/mL (≈ 2.53 to 5.05 µM) with A. baumannii CDC-0033; < 1 µg/mL in the test with A. baumannii 1258916; < 1 µg/mL with A. baumannii ATCC 17978. Moreover, the MIC in test [2] (iron-depleted CAMHB (IDM), […]) is < 1 µg/mL; in the test with P. aeruginosa ATCC 35151 it was < 1 µg/mL; in test [3] it was < 1 µg/mL.
On to `O=C(O)c1c(F)ccc2c1OB(O)[C@@H](NC(=O)C(NC(=O)N1CCN(S(=O)(=O)c3ccc(O)c(O)c3Cl)C1=O)c1ccc(P(=O)(O)O)cc1)C2` (stereo partly drawn) [Example 505, (3R)-3-(2-(3-((2-chloro-3,4-dihydroxyphenyl)sulfonyl)-2-oxoimidazolidine-1-carboxamido)-2-(4-phosphonophenyl)acetamido)-7-fluoro-2-hydroxy-3,4-dihydro-2H-benzo[e][1,2]oxaborinine-8-carboxylic acid], for which the MIC (in the test on A. baumannii CDC-0045; in the test with P. aeruginosa CDC-0054; in [1]; in the test with A. baumannii CDC-0033; with A. baumannii 1258916; in the test with A. baumannii ATCC 17978) was < 1 µg/mL each time. Moreover, the MIC in test [2] (iron-depleted CAMHB (IDM), […]) was < 1 µg/mL; in the test on P. aeruginosa ATCC 35151 it was < 1 µg/mL; in test [3], < 1 µg/mL.
`O=C(O)c1c(F)ccc2c1OB(O)[C@@H](NC(=O)[C@H](NC(=O)N1CCN(C3CCN(C(=O)Nc4ccc(O)c(O)c4Cl)CC3)C1=O)c1ccc(P(=O)(O)O)cc1)C2` (single isomer, unassigned) [Example 497]: the MIC (with A. baumannii CDC-0045; in the test on P. aeruginosa CDC-0054; in test [1]; with A. baumannii CDC-0033; with A. baumannii 1258916; in the test on A. baumannii ATCC 17978) was < 1 µg/mL throughout. In addition, the MIC was < 1 µg/mL in test [2] (iron-depleted CAMHB (IDM), […]); < 1 µg/mL in the test with P. aeruginosa ATCC 35151; < 1 µg/mL in test [3].
For `O=C(O)c1c(F)ccc2c1OB(O)[C@@H](NC(=O)[C@H](NC(=O)N1CCN(C3CCN(C(=O)c4cc(F)c(O)c(O)c4Cl)CC3)C1=O)c1ccc(P(=O)(O)O)cc1)C2` (single isomer, unassigned) [Example 495], the MIC (with A. baumannii CDC-0045; with P. aeruginosa CDC-0054; in test [1]; with A. baumannii CDC-0033; in the test with A. baumannii 1258916; with A. baumannii ATCC 17978) was < 1 µg/mL in each case. Moreover, the MIC in test [2] (iron-depleted CAMHB (IDM), […]) was < 1 µg/mL; in the test on P. aeruginosa ATCC 35151, < 1 µg/mL; in test [3], < 1 µg/mL.
Consider `O=C(O)c1cccc2c1OB(O)[C@@H](NC(=O)[C@H](NC(=O)N1CCN(S(=O)(=O)c3ccc(O)c(O)c3Cl)C1=O)c1ccc(P(=O)(O)O)cc1)C2` [Example 509, (R)-3-((R)-2-(3-((2-chloro-3,4-dihydroxyphenyl)sulfonyl)-2-oxoimidazolidine-1-carboxamido)-2-(4-phosphonophenyl)acetamido)-2-hydroxy-3,4-dihydro-2H-benzo[e][1,2]oxaborinine-8-carboxylic acid], for which the MIC (with A. baumannii CDC-0045; in the test with P. aeruginosa CDC-0054; in test [1]; in the test with A. baumannii CDC-0033; with A. baumannii 1258916; with A. baumannii ATCC 17978) was < 1 µg/mL throughout. The MIC in [2] (iron-depleted CAMHB (IDM), […]) is < 1 µg/mL; with P. aeruginosa ATCC 35151, < 1 µg/mL; in test [3], < 1 µg/mL.
On to `O=C(O)c1c(F)ccc2c1OB(O)[C@@H](NC(=O)[C@H](NC(=O)N1CCN(C3CCN(C(=O)c4cc(O)c(O)c(Cl)c4)CC3)C1=O)c1ccc(P(=O)(O)O)cc1)C2` [Example 496, (R)-3-((R)-2-(3-(1-(3-chloro-4,5-dihydroxybenzoyl)piperidin-4-yl)-2-oxoimidazolidine-1-carboxamido)-2-(4-phosphonophenyl)acetamido)-7-fluoro-2-hydroxy-3,4-dihydro-2H-benzo[e][1,2]oxaborinine-8-carboxylic acid], for which the MIC (with A. baumannii CDC-0045; with P. aeruginosa CDC-0054; in [1]; with A. baumannii CDC-0033; in the test with A. baumannii 1258916; in the test on A. baumannii ATCC 17978) was < 1 µg/mL each time. The MIC in test [2] (iron-depleted CAMHB (IDM), […]) was < 1 µg/mL; in the test with P. aeruginosa ATCC 35151, < 1 µg/mL; in test [3] it was < 1 µg/mL.
